Assay results from the supplement of paper PMC11451515.

Legend:
Conditions in all cases: 48 h
SEM cells [1] = experiment: AUC of viability dose-response curve (% viability x log10 dose units); higher = less sensitive
Procedure, shortened: (§1)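 In 1536-well plates, leukemia cells adapted to each medium (500 or 1000 cells/well) were exposed for 48 h at 37°C to library compounds in DMSO across 11 threefold doses, 47 μM down to 0.79 nM. Viability was read by CellTiter-Glo One luminescence and normalised per plate to DMSO and cell-free wells. A four-parameter log-logistic fit over log10 doses was integrated by trapezoidal rule. This yielded the area under the curve, with over-full-viability curves scaled and quality-control failures dropped.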

NOMO1 [2] = experiment: as above
Procedure, shortened: as §1

P12-Ichikawa [3] = experiment: as above
Procedure, shortened: as §1

SEM cells [4] = experiment: cell viability relative to DMSO control; higher = less cytotoxic
Procedure, shortened: (§2)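 NOMO1 or SEM cells were plated at 500 cells/well and P12-Ichikawa cells at 1000 cells/well in 1536-well plates (5 μl), after each leukemia line had been adapted for at least four passages in each medium. Pin dosing delivered library compounds in DMSO at 11 threefold concentrations, 47 μM to 0.79 nM. CellTiter-Glo One luminescence was read after 48 h at 37°C. Viability is reported as a per-plate percentage of DMSO wells, with cell-free wells as background.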

NOMO1 [5] = experiment: as above
Procedure, shortened: as §2

P12-Ichikawa [6] = experiment: as above
Procedure, shortened: as §2

C[C@]12CC[C@H]3[C@@H](C\C=C/4C[C@@H](O)CC[C@]34C)[C@@H]1CCC2=O
AUC of viability dose-response curve
Conditions | NOMO1 [2] | P12-Ichikawa [3] | SEM cells [1]
HPLM + 10% dialyzed FBS | 439 | 449 | 468
RPMI 5 mM glucose + 10% FBS | 448 | 438 | 454
RPMI 5 mM glucose + 10% dialyzed FBS | 460 | 454 | 462

cell viability [%]
Conditions | NOMO1 [5] | P12-Ichikawa [6] | SEM cells [4]
HPLM + 10% dialyzed FBS, 0.000781 µM | 115 | 111 | 103
HPLM + 10% dialyzed FBS, 0.00234 µM | 134 | 110 | 98.2
HPLM + 10% dialyzed FBS, 0.00702 µM | 117 | 117 | 91.1
HPLM + 10% dialyzed FBS, 0.0211 µM | 121 | 108 | 102
HPLM + 10% dialyzed FBS, 0.0632 µM | 147 | 110 | 98.4
HPLM + 10% dialyzed FBS, 0.19 µM | 117 | 115 | 94.6
HPLM + 10% dialyzed FBS, 0.569 µM | 111 | 107 | 99.8
HPLM + 10% dialyzed FBS, 1.71 µM | 110 | 111 | 98.2
HPLM + 10% dialyzed FBS, 5.12 µM | 103 | 58 | 83.4
HPLM + 10% dialyzed FBS, 15.4 µM | 110 | 102 | 107
HPLM + 10% dialyzed FBS, 46.1 µM | 84.7 | 96.2 | 103
RPMI 5 mM glucose + 10% FBS, 0.000781 µM | 116 | – | 108
RPMI 5 mM glucose + 10% FBS, 0.00234 µM | 126 | – | 114
RPMI 5 mM glucose + 10% FBS, 0.00702 µM | 116 | – | 121
RPMI 5 mM glucose + 10% FBS, 0.0211 µM | 104 | – | 135
RPMI 5 mM glucose + 10% FBS, 0.0632 µM | 116 | – | 136
RPMI 5 mM glucose + 10% FBS, 0.19 µM | 105 | – | 111
RPMI 5 mM glucose + 10% FBS, 0.569 µM | 121 | – | 135
RPMI 5 mM glucose + 10% FBS, 1.71 µM | 112 | – | 115
RPMI 5 mM glucose + 10% FBS, 5.12 µM | 117 | – | 93.1
RPMI 5 mM glucose + 10% FBS, 15.4 µM | 103 | – | 116
RPMI 5 mM glucose + 10% FBS, 46.1 µM | 98 | – | 97.5
RPMI 5 mM glucose + 10% dialyzed FBS, 0.000781 µM | 120 | 111 | 112
RPMI 5 mM glucose + 10% dialyzed FBS, 0.00234 µM | 108 | 109 | 97.1
RPMI 5 mM glucose + 10% dialyzed FBS, 0.00702 µM | 115 | 115 | 118
RPMI 5 mM glucose + 10% dialyzed FBS, 0.0211 µM | 119 | 108 | 128
RPMI 5 mM glucose + 10% dialyzed FBS, 0.0632 µM | 118 | 122 | 127
RPMI 5 mM glucose + 10% dialyzed FBS, 0.19 µM | 106 | 114 | 136
RPMI 5 mM glucose + 10% dialyzed FBS, 0.569 µM | 114 | 105 | 130
RPMI 5 mM glucose + 10% dialyzed FBS, 1.71 µM | 108 | 102 | 121
RPMI 5 mM glucose + 10% dialyzed FBS, 5.12 µM | 103 | 99.1 | 94.3
RPMI 5 mM glucose + 10% dialyzed FBS, 15.4 µM | 109 | 101 | 115
RPMI 5 mM glucose + 10% dialyzed FBS, 46.1 µM | 106 | 98.5 | 112

Nc1cccc2c1CN([C@H]1CCC(=O)NC1=O)C2=O
AUC of viability dose-response curve
Conditions | NOMO1 [2] | P12-Ichikawa [3] | SEM cells [1]
HPLM + 10% dialyzed FBS | 462 | 451 | 427
RPMI 5 mM glucose + 10% FBS | 428 | 448 | 390
RPMI 5 mM glucose + 10% dialyzed FBS | 466 | 449 | 450

cell viability [%]
Conditions | NOMO1 [5] | P12-Ichikawa [6] | SEM cells [4]
HPLM + 10% dialyzed FBS, 0.000781 µM | – | 115 | 120
HPLM + 10% dialyzed FBS, 0.00234 µM | – | 112 | 131
HPLM + 10% dialyzed FBS, 0.00702 µM | – | 114 | 110
HPLM + 10% dialyzed FBS, 0.0211 µM | – | 117 | 121
HPLM + 10% dialyzed FBS, 0.0632 µM | – | 109 | 115
HPLM + 10% dialyzed FBS, 0.19 µM | – | 114 | 114
HPLM + 10% dialyzed FBS, 0.569 µM | – | 107 | 103
HPLM + 10% dialyzed FBS, 1.71 µM | – | 103 | 97.6
HPLM + 10% dialyzed FBS, 5.12 µM | – | 107 | 81.8
HPLM + 10% dialyzed FBS, 15.4 µM | – | 88.8 | 99.5
HPLM + 10% dialyzed FBS, 46.1 µM | – | 96.7 | 89.5
RPMI 5 mM glucose + 10% FBS, 0.000781 µM | 125 | 109 | –
RPMI 5 mM glucose + 10% FBS, 0.00234 µM | 118 | 124 | –
RPMI 5 mM glucose + 10% FBS, 0.00702 µM | 124 | 118 | –
RPMI 5 mM glucose + 10% FBS, 0.0211 µM | 123 | 118 | –
RPMI 5 mM glucose + 10% FBS, 0.0632 µM | 112 | 124 | –
RPMI 5 mM glucose + 10% FBS, 0.19 µM | 114 | 113 | –
RPMI 5 mM glucose + 10% FBS, 0.569 µM | 98.3 | 116 | –
RPMI 5 mM glucose + 10% FBS, 1.71 µM | 105 | 99.6 | –
RPMI 5 mM glucose + 10% FBS, 5.12 µM | 99.7 | 114 | –
RPMI 5 mM glucose + 10% FBS, 15.4 µM | 82.1 | 80.8 | –
RPMI 5 mM glucose + 10% FBS, 46.1 µM | 112 | 92.7 | –
RPMI 5 mM glucose + 10% dialyzed FBS, 0.000781 µM | 101 | 112 | 109
RPMI 5 mM glucose + 10% dialyzed FBS, 0.00234 µM | 111 | 114 | 108
RPMI 5 mM glucose + 10% dialyzed FBS, 0.00702 µM | 120 | 105 | 117
RPMI 5 mM glucose + 10% dialyzed FBS, 0.0211 µM | 104 | 107 | 111
RPMI 5 mM glucose + 10% dialyzed FBS, 0.0632 µM | 114 | 107 | 120
RPMI 5 mM glucose + 10% dialyzed FBS, 0.19 µM | 108 | 107 | 109
RPMI 5 mM glucose + 10% dialyzed FBS, 0.569 µM | 107 | 97.4 | 111
RPMI 5 mM glucose + 10% dialyzed FBS, 1.71 µM | 109 | 102 | 103
RPMI 5 mM glucose + 10% dialyzed FBS, 5.12 µM | 103 | 94.8 | 103
RPMI 5 mM glucose + 10% dialyzed FBS, 15.4 µM | 88.4 | 63.3 | 88.8
RPMI 5 mM glucose + 10% dialyzed FBS, 46.1 µM | 107 | 80.8 | 81.4

NC(=O)c1cccc2cn(-c3ccc([C@@H]4CCCNC4)cc3)nc12
AUC of viability dose-response curve
Conditions | NOMO1 [2] | P12-Ichikawa [3] | SEM cells [1]
HPLM + 10% dialyzed FBS | 468 | 453 | 438
RPMI 5 mM glucose + 10% FBS | 456 | 441 | 448
RPMI 5 mM glucose + 10% dialyzed FBS | 470 | 458 | 446

cell viability [%]
Conditions | NOMO1 [5] | P12-Ichikawa [6] | SEM cells [4]
HPLM + 10% dialyzed FBS, 0.000781 µM | 90.2 | 90.3 | 86.9
HPLM + 10% dialyzed FBS, 0.00234 µM | 97.4 | 94.4 | 90.8
HPLM + 10% dialyzed FBS, 0.00702 µM | 114 | 103 | 105
HPLM + 10% dialyzed FBS, 0.0211 µM | 103 | 104 | 126
HPLM + 10% dialyzed FBS, 0.0632 µM | 118 | 110 | 129
HPLM + 10% dialyzed FBS, 0.19 µM | 122 | 105 | 98.9
HPLM + 10% dialyzed FBS, 0.569 µM | 114 | 108 | 112
HPLM + 10% dialyzed FBS, 1.71 µM | 111 | 106 | 116
HPLM + 10% dialyzed FBS, 5.12 µM | 98.2 | 101 | 91.8
HPLM + 10% dialyzed FBS, 15.4 µM | 117 | 86.9 | 63.8
HPLM + 10% dialyzed FBS, 46.1 µM | 69 | 33.8 | 50
RPMI 5 mM glucose + 10% FBS, 0.000781 µM | 83.5 | 83.9 | 97.8
RPMI 5 mM glucose + 10% FBS, 0.00234 µM | 82.2 | 90.4 | 111
RPMI 5 mM glucose + 10% FBS, 0.00702 µM | 100 | 96.8 | 113
RPMI 5 mM glucose + 10% FBS, 0.0211 µM | 102 | 100 | 110
RPMI 5 mM glucose + 10% FBS, 0.0632 µM | 93.8 | 103 | 102
RPMI 5 mM glucose + 10% FBS, 0.19 µM | 97.1 | 105 | 92.8
RPMI 5 mM glucose + 10% FBS, 0.569 µM | 91.5 | 101 | 119
RPMI 5 mM glucose + 10% FBS, 1.71 µM | 106 | 102 | 113
RPMI 5 mM glucose + 10% FBS, 5.12 µM | 103 | 103 | 120
RPMI 5 mM glucose + 10% FBS, 15.4 µM | 105 | 75.5 | 80.1
RPMI 5 mM glucose + 10% FBS, 46.1 µM | 82.2 | 24.5 | 32.5
RPMI 5 mM glucose + 10% dialyzed FBS, 0.000781 µM | 83.8 | 94.1 | 94.3
RPMI 5 mM glucose + 10% dialyzed FBS, 0.00234 µM | 111 | 98.6 | 80.8
RPMI 5 mM glucose + 10% dialyzed FBS, 0.00702 µM | 108 | 103 | 93.4
RPMI 5 mM glucose + 10% dialyzed FBS, 0.0211 µM | 111 | 105 | 106
RPMI 5 mM glucose + 10% dialyzed FBS, 0.0632 µM | 108 | 108 | 104
RPMI 5 mM glucose + 10% dialyzed FBS, 0.19 µM | 122 | 113 | 90
RPMI 5 mM glucose + 10% dialyzed FBS, 0.569 µM | 114 | 103 | 109
RPMI 5 mM glucose + 10% dialyzed FBS, 1.71 µM | 102 | 106 | 124
RPMI 5 mM glucose + 10% dialyzed FBS, 5.12 µM | 110 | 101 | 94.6
RPMI 5 mM glucose + 10% dialyzed FBS, 15.4 µM | 118 | 88.4 | 66.4
RPMI 5 mM glucose + 10% dialyzed FBS, 46.1 µM | 98.8 | 55.5 | 44.4

O=C(O)COCCN1CCN(C(c2ccccc2)c2ccc(Cl)cc2)CC1 (configuration not stated)
AUC of viability dose-response curve
Conditions | NOMO1 [2] | P12-Ichikawa [3] | SEM cells [1]
HPLM + 10% dialyzed FBS | 463 | 461 | 465
RPMI 5 mM glucose + 10% FBS | 459 | 461 | 453
RPMI 5 mM glucose + 10% dialyzed FBS | 451 | 455 | 469

cell viability [%], SEM cells [4]
Conditions | HPLM + 10% dialyzed FBS | RPMI 5 mM glucose + 10% FBS
0.000781 µM | 126 | 117
0.00234 µM | 125 | 118
0.00702 µM | 117 | 113
0.0211 µM | 130 | 108
0.0632 µM | 140 | 116
0.19 µM | 132 | 95.4
0.569 µM | 128 | 119
1.71 µM | 123 | 91
5.12 µM | 111 | 113
15.4 µM | 119 | 112
46.1 µM | 122 | 102
